From patent US9371568B2, “Markers associated with human double minute 2 inhibitors” (Novartis AG, priority 2012, dated 2016)

Key:
[1] = test system: p21(CDKN1A); assay: p21(CDKN1A) protein levels in SJSA-1 tumors (immunohistochemistry); format: in vivo, mice; details: SJSA-1 xenograft
Description: SJSA-1 xenograft tumors were collected and a 3-4 mm slice out of the middle of the tumor was removed, transferred into pre-labelled histo-cassettes and immersion-fixed in neutral buffered formalin (NBF) 10% (v/v) (pH 6.8-7.2) (J. T. Baker, Winter Garden, Fla., USA), pre-cooled at 4° C. Tumors were then fixed at room temperature for 24 hours, followed by processing in the TPC 15Duo (Tissue Processing Center, Medite) for paraffinization. Subsequently, the tumor slices were embedded in paraffin and from each paraffin block several 3 μm thick sections were cut on a rotary microtome (Mikrom International AG, Switzerland), spread in a 48° C. water-bath, mounted on glass slides (SuperFrost Plus, Thermo Scientific: Waltham Mass., USA), and dried in an oven either at 37° C. overnight or at 60° C. for 30 min. Dry tissue section were processed for immunohistochemistry (IHC) staining. p21(CDKN1A) immunohistochemistry has been performed using the mouse monoclonal antibody clone SX118 from Dako (Cat. No. M7202 Dako: Carpenteria Calif., USA) at a dilution of 1:50. Immunohistochemistry has been performed on a Ventana Discovery XT automated immunostainer using the N-Histofine Mousestain Kit (Nichirei Bioscience Inc, Japan) in combination with the DABMap Kit chromogen system, omitting the SA-HRP solution (Ventana/Roche Diagnostics GmbH, Mannheim, Germany). […]

[2] = test system: C3A cells; assay: Western blot of p53 pathway proteins, C3A sensitive cells; format: cell-based; details: 4 hours
Description: (§1) That the biomarkers in Table 2/FIG. 3 are reflective of a functional p53 pathway in MDM2i sensitive cells is verified in FIG. 4. […]. Whole cell lysates were prepared using a cell lysis buffer containing 50 mM Tris-HCl pH 7.5, 120 mM NaCl, 1 mM EDTA, 6 mM EGTA pH 8.5, 1% NP-40, 20 mM NaF, 1 mM PMSF and 0.5 mM Na-Vanadat, proteins were separated on NuPAGE 4-12% Bis-Tris Gel (Invitrogen # NP0322BOX, Lucerne; Switzerland), transferred onto Nitrocellulose Protran® BA 85 membranes (Whatman #10 401 261: Piscataway, N.J., USA) at 1.5 mA/cm^2 membrane for 2 h using a semi-dry blotting system, and immunoblotted with either an anti-phospho-p53 (Ser^15) (1/1000; Cell Signaling Technology #9284: Beverly, Mass., USA) rabbit polyclonal antibody, or an anti-p53 (Ab-6) (Pantropic, clone DO-1,) (1/1000; Calbiochem # OP43 San Diego, Calif., USA), an anti-MDM2 (Ab-1, clone IF2) (1/1000; Calbiochem # OP46), an anti-p21^WAF1(Ab-1, clone EA10) (1/500; Calbiochem # OP64: San Diego, Calif., USA) or an anti-α-Tubulin (Sigma # T5168: St. Louis, Mo., USA) mouse monoclonal antibodies, as indicated. […].

[3] = test system: SJSA-1, HCT116 p53wt/wt, SAOS2 and HCT116 p53-/- cells; assay: Cell proliferation inhibition assay (YOPRO), p53 wild-type and p53 mutant cell lines; format: cell-based; details: 72 hours, p53 wild-type vs p53 mutant cell lines
Description: Lucern, Switzerland). Briefly, cells are plated in 96-well plates overnight at 37° C. and are treated with increasing concentrations of MDM2i(1) or MDM2i(2) for 72 hours. Cell concentration in each well is then determined using the DNA-interacting fluorescent dye YOPRO according to the manufacturer's instructions and the fluorescent signal is measured using a Gemini-EM standard plate reader (Molecular Devices: Sunnyvale, Calif., USA).

[4] = test system: p21(CDKN1A); assay: p21(CDKN1A) mRNA levels in SJSA-1 tumors (qRT-PCR); format: in vivo, mice; details: SJSA-1 xenograft, 25-100 mg/kg q24h
Description: Briefly, total RNA was purified from cell pellets using the QIAshredder® (79654, Qiagen: Valencia Calif., USA) and RNeasy Mini Kit® (74106, Qiagen: Valencia Calif., USA) according to the manufacturer's instructions, with the exception that no DNA digestion was performed. Total RNA was eluted with 50 μL of RNase-free water. Total RNA was quantitated using the spectrophotometer ND-1000 Nanodrop® (Wilmington Del., USA). The qRT-PCR (Quantitative Reverse Transcriptase Polymerase Chain Reaction) was set up in triplicate per sample using the One-Step RT qPCR Master Mix Plus (RT-QPRT-032×, Eurogentec: Seraing, Belgium), with either control primers and primers for human p21(CDKN1A) (Hs00355782_m1, Applied Biosystems: Carlsbad Calif., USA) or mouse p21(CDKN1A) (Mm00432448_m1, Applied Biosystems: Carlsbad Calif., USA), namely TaqMan Gene Expression kit assays (20× probe dye FAM™ (or VIC)-TAMRA (or MGB); Applied Biosystems: Carlsbad Calif., USA). […] The number of cycles (CT) was determined, 2^−CT values were calculated, and the value normalized by dividing with the 2^−CT value obtained from the Gapdh control. Fold increase over control (i.e. DMSO- or vehicle-treated animals) was calculated and plotted in the bar graph.

[5] = test system: SJSA-1 osteosarcoma cells; assay: SJSA-1 xenograft tumor growth in nude mice; format: in vivo; details: 10-day treatment
Description: To further validate the predictive biomarkers disclosed in FIG. 3, in vivo human xenograft models either from human primary samples or from cell lines were directly injected and grown in tumors subcutaneously in mice and then assessed for MDM2i sensitivity. All the animals were allowed to adapt for 4 days and housed in a pathogen-controlled environment (5 mice/Type III cage) with access to food and water ad libitum. Animals were identified with transponders. Studies were performed according to procedures covered by permit number 1975 issued by the Kantonales Veterinäramt Basel-Stadt and strictly adhered to the Eidgenössisches Tierschutzgesetz and the Eidgenössische Tierschutzverordnung. […] Tumor volumes (TVol), determined from caliper measurements (using the formula I×w×h×τ/6) were measured three times per week. Tumor response was quantified by the change in tumor volume (endpoint minus starting value in mm^3) as the T/C, i.e.
[formula] In the case of a tumor regression, the tumor response was quantified by the percentage of regression of the starting TVol, i.e.
[formula] The body-weight (BW) of the mice was measured three times per week allowing calculation at any particular time-point relative to the day of initiation of treatment (day 0) of both the percentage change in BW (Δ % BW). […]

[6] = test system: COLO 792 cells; assay: Western blot of p53 pathway proteins, COLO 792 insensitive cells; format: cell-based; details: increasing concentrations, 4 hours
Description: as §1

[7] = test system: human and mouse normal fibroblasts; details: cited from earlier work
[8] = test system: SJSA-1 osteosarcoma line; details: SJSA-1, amplified MDM2 gene; cited from earlier work

Row | SMILES | p21(CDKN1A) protein levels in tumors [1] | phospho-p53 ([2]; C3A cells, increasing concentrations) | expression of p53 target genes p21(CDKN1A) and MDM2 ([2]; C3A sensitive cells) | tumor cell proliferation [3] | p21(CDKN1A) mRNA levels in tumors [4] | T/C (tumor growth inhibition) ([5]; 25 mg/kg q24h) [%] | T/C (tumor growth inhibition) ([5]; 50 mg/kg q24h) [%] | phospho-p53 [6] | proliferation of normal fibroblasts [7] | viability of normal fibroblasts [7] | apoptosis [8] | proliferation [8]
1 | COc1cc2c(cc1OC(C)C)[C@H](c1ccc(Cl)cc1)N(c1ccc(N(C)C[C@H]3CC[C@H](N4CCN(C)C(=O)C4)CC3)cc1)C(=O)C2 [MDM2i(1)] | significant dose-dependent induction | no significant increase | strong de novo expression | hampering tumor cell proliferation in a p53-dependent manner | significant dose-dependent induction | 50 | 3 | no significant increase |  |  |  | 
2 | COc1cc2c(cc1OC(C)C)[C@H](c1ccc(Cl)cc1)N(c1ccc(N(C)C[C@H]3CC[C@H](N4CCNC(=O)C4)CC3)cc1)C(=O)C2 [MDM2i(2)] |  |  |  | hampering tumor cell proliferation in a p53-dependent manner |  |  |  |  |  |  |  | 
3 | COc1ccc(C2=N[C@@H](c3ccc(Cl)cc3)[C@@H](c3ccc(Cl)cc3)N2C(=O)N2CCNC(=O)C2)c(OC(C)C)c1 [Nutlin-3] |  |  |  |  |  |  |  |  | proliferation of the cells was slowed | retained their viability | increased apoptosis | reduced proliferation
